Tested on: conscious guinea pigs
Experiment: Citric acid inhalation cough model in conscious guinea pigs
Format: in vivo, guinea pig
Conditions: 30 min before citric acid aerosols 0.01M-0.3M
Method: Cough suppression was evaluated in conscious guinea pigs using a citric acid inhalation model (Smith et al., 2012). Guinea pigs were pretreated intraperitoneally with drug vehicle (saline), α7 PHA543613 (10 mg/kg) (FIG. 3), or (2S,3R)—N-(2-(3-pyridinyl)methyl)-1-azabicyclo[2.2.2]oct-3-yl)benzofuran-2-carboxamide (30 mg/kg) (FIG. 4). Respiration and cough reflexes were measured using a Buxco inhalation chamber connected to a Biopac data acquisition system. Thirty minutes after vehicle or drug administration, animals were challenged in sequence with ascending aerosol concentrations of citric acid (0.01M-0.3M), with each aerosol delivered for 5 minutes and with 5 minutes interval in between challenges. The cumulative coughs evoked were quantified and results are presented as a mean±standard error of the mean (SEM) of n experiments, where n refers to a single animal). Studies were performed using a nonpaired parallel group design. Differences amongst group means were evaluated by t-test or ANOVA, with a p<0.05 considered statistically significant which is represented by an asterisk (*) in FIG. 3 and FIG. 4.

SMILES	cumulative citric acid evoked coughs (in words) (30 mg/kg intraperitoneally, FIG. 4)	cumulative citric acid evoked coughs (in words) (10 mg/kg intraperitoneally, FIG. 3)
O=C(N[C@@H]1C2CCN(CC2)[C@H]1Cc1cccnc1)c1cc2ccccc2o1 [(2S,3R)—N-(2-((3-pyridinyl)methyl)-1-azabicyclo[2.2.2]oct-3-yl)benzofuran-2-carboxamide]	markedly inhibited citric acid evoked coughs	–
O=C(N[C@H]1CN2CCC1CC2)c1cc2ccoc2cn1 [PHA543613]	–	markedly inhibited citric acid evoked coughs
